{"source": "patent US11559527B2", "about": "(priority 2017, dated 2023)", "key": {"MCF7 breast cancer cells": {"test_system": "MCF7 breast cancer cells", "experiment": "Tumorsphere formation assay, MCF7", "assay_type": "cell-based, Human", "conditions": "five days, vs vehicle", "experimental": "(§1) One of the gold standard techniques for the study and identification of CSCs is the sphere formation assay, an in vitro culture system that enriches for CSCs. Under these anchorage-independent culture conditions, CSCs preferentially form the so-called tumorspheres, whereas more differentiated cells die rapidly.\n(§2) TUMORSPHERE FORMATION ASSAY: A single cell suspension was prepared using enzymatic (1× Trypsin-EDTA, T3924, Sigma Aldrich), and manual disaggregation (25 gauge needle). […] After 5 days of culture in a humidified incubator at 37° C., tumorspheres bigger than 50 μm were counted using an eye piece graticule."}, "A549 lung cancer cells": {"test_system": "A549 lung cancer cells", "experiment": "Tumorsphere formation assay, A549", "assay_type": "cell-based", "experimental": "as §1, §2"}, "MCF7 cells [1]": {"test_system": "MCF7 cells", "experiment": "Scratch assay (wound closure, migration)", "assay_type": "cell-based, Human", "conditions": "48 hours, vs vehicle", "from_the_text": "It is though that CSCs are responsible for metastatic spread and growth. Emerging evidence highlights the role of mitochondrial dynamics in tumor cell dissemination. […] In migrating cancer cells mitochondria accumulate at the leading edge where processes requiring high energy occur, such as formation of focal adhesions. Fission seems to be a prerequisite for that efficient relocation of mitochondria. Indeed, upregulation/activation of DRP1 is associated with a migratory and invasive phenotype in cancer. […] Through a scratch assay, were cells were cultured in the presence of either vehicle or mDIVI-1. The scratch was monitored over time and the percentage of wound closure was measured as described previously.\nSCRATCH ASSAY: A hundred thousand MCF7 cells per well were seeded in 12-well plates. When cells were attached, a horizontal scratch was performed using the tip of a pipette. Immediately after, the media was removed and either fresh vehicle-containing media or mDIVI-1-containing media were added to the cells for 48 hours. Four replicates were used for each condition. […] The wound closure was monitored by taking pictures of each well every 4 hours. At the end of the treatment, pictures of the wells at 0 and 48 hours were analysed using ImageJ software to calculate wound closure according to the following formula: Percentage wound closure=[(wound area0 h−wound area48 h)/wound area0 h]×100."}, "Notch signaling": {"test_system": "Notch signaling", "experiment": "Luciferase reporter assay MCF7-GFP-Rbp/Jk(luc)", "assay_type": "cell-based, Human", "conditions": "50 μM, 2 and 5 days", "from_the_text": "Mitochondrial fusion and fission may also have an impact in signaling pathways that regulate stem cell proliferation and survival. […] A range of reporter MCF7-GFP cell lines were generated, including MCF7-GFP-GLI(luc), MCF7-GFP-Rbp/Jk(luc), MCF7-GFP-SMAD(luc) and MCF7-GFP-TCF/LEF(luc), to assess Hedgehog signaling, Notch signaling, TGFβ signaling, and Wnt signaling, respectively. […] The data is shown in the four data plots in FIG. 9.\nLUCIFERASE ASSAY: The Cignal Lenti reporter assay (luc) was used to monitor the activity of several signalling pathways in MCF7-GFP cells as explained previously. Luciferase Assay System (E1501, Promega) was performed according to manufacturer's instructions. 1×10^4 MCF7 […] were seeded in black-walled 96 well plates. When cells were attached, drug treatments were added for 18, 48 hours and 5 days. After treatment, Luciferase Assay was performed according to manufacturer's instructions and light signal was acquired in the Xenogen VivoVision IVIS Lumina. Results were normalized by SRB staining of cells grown in 96-well plates in parallel.\nSULFORHODAMINE B (SRB) ASSAY: SRB (S9012, Sigma) measures total biomass by staining cellular proteins. […] Absorbance was spectrophotometrically measured at 562 nm in a FluoStar Omega plate reader (BMG Labtech). […]"}, "MCF7 cells [2]": {"test_system": "MCF7 cells", "experiment": "CD24/CD44 expression by FACS", "assay_type": "cell-based, Human", "experimental": "In human breast cancers, CSCs were first identified by the profile of expression of the cell surface marker CD24^−/CD44^+.\nThis is evident in FIGS. 10A and 10B.\nThe surviving fraction after 2 days and 5 days of growth was analyzed by FACS. MCF7 cells were either trypsinised or spun down and trypsinised and incubated with CD24 (IOTest CD24-PE, Beckman Coulter) and CD44 (APC mouse anti-human CD44, 559942, BD Pharmingen) for 15 minutes on ice. Cells were then rinsed twice in PBS, spun down, and resuspended with DAPI dye (D1306, Molecular probes) at 3 μM in PBS for 10 minutes. Samples were then analyzed by FACS (Fortessa, BD Bioscence). Only the live cell population, identified using the DAPI staining, was analyzed for CD24/CD44 expression. Data were analyzed using FlowJo software."}}}
{"smiles": "COc1cc(-n2c(S)nc3ccccc3c2=O)c(Cl)cc1Cl", "note": "[mDIVI-1, 3-(2,4-Dichloro-5-methoxyphenyl)-2-sulfanyl-4(3H)-quinazolinone]", "values": [{"measurement": "decrease of tumorsphere number", "setting": "MCF7 breast cancer cells; MCF7, 10 μM", "value": 50, "unit": "%"}, {"measurement": "decrease of tumorsphere number", "setting": "MCF7 breast cancer cells; MCF7, 50 μM", "value": 80, "unit": "%"}, {"measurement": "decrease of tumorsphere number", "setting": "MCF7 breast cancer cells; MCF7, 100 μM", "value": 95, "unit": "%"}, {"measurement": "decrease of tumorsphere forming capacity", "setting": "A549 lung cancer cells; A549, 10 μM", "value": "> 15", "unit": "%"}, {"measurement": "decrease of tumorsphere forming capacity", "setting": "A549 lung cancer cells; A549, 50 μM", "value": "> 80", "unit": "%"}, {"measurement": "reduction of percentage of wound closure", "setting": "MCF7 cells [1]; 10 μM", "value": 14, "unit": "%"}, {"measurement": "reduction of percentage of wound closure", "setting": "MCF7 cells [1]; 50 μM", "value": 44, "unit": "%"}, {"measurement": "Notch/Rbp pathway luciferase activity", "setting": "Notch signaling", "value": "inhibition"}, {"measurement": "abundance of CD24−/CD44+ subpopulation", "setting": "MCF7 cells [2]; MCF7 grown as monolayers, 10 or 50 μM, vs vehicle", "value": "not reduced"}, {"measurement": "amount of CD24−/CD44+ cells", "setting": "MCF7 cells [2]; MCF7 in suspension, dose-dependent", "value": "increased"}]}
